Data on 20 compounds can be found in US10934296B2, “4-imidazopyridazin-1-yl-benzamides as Btk inhibitors” (Merck Sharp & Dohme B.V., priority 2011, dated 2021).

Sequence of Btk enzyme (His-Btk) (Q06187 whole entry): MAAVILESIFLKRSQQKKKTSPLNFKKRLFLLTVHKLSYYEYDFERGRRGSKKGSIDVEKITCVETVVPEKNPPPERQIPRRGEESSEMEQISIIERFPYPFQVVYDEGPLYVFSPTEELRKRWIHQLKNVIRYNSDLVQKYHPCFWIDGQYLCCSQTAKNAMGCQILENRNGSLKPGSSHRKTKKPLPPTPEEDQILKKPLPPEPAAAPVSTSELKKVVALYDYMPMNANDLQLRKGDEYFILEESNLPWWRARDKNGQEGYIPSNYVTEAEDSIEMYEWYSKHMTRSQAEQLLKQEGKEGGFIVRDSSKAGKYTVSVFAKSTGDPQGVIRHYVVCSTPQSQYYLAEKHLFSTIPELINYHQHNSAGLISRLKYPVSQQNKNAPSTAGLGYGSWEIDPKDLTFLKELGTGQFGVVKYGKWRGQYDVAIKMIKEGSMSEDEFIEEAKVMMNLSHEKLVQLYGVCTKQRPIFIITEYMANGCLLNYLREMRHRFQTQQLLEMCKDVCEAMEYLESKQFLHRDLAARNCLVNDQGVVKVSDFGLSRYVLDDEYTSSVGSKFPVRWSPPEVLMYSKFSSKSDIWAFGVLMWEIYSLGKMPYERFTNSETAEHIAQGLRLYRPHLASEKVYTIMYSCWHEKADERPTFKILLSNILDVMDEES

The first experiment concerns the target Btk enzyme (His-Btk) (Homo sapiens (Human), UniProt Q06187). The experiment in a line: Btk enzyme activity, IMAP fluorescence polarization assay. To be noted: 60 min pre-incubation, 5 μM ATP, bin bounds in nM. (Fluorescence polarisation rises when a labelled molecule tumbles more slowly, as on binding a larger partner.)
With `Nc1nccn2c([C@@H]3CCCN3C(=O)c3ccnc(Cl)n3)nc(-c3ccc(C(=O)Nc4nc5c(s4)CCCC5)cc3)c12` [Example 71, (S)-4-(8-amino-3-(1-(2-chloropyrimidine-4-carbonyl)pyrrolidin-2-yl)imidazo[1,5-a]pyrazin-1-yl)-N-(4,5,6,7-tetrahydrobenzo[d]thiazol-2-yl)benzamide], the “EC50 Btk activity values” is less than 100 nM. Regarding `CN(C)C/C=C/C(=O)N1CCCC[C@H]1c1nc(-c2ccc(C(=O)Nc3cccnn3)cc2)c2c(N)nccn12` [Example 73, (S,E)-4-(8-amino-3-(1-(4-(dimethylamino)but-2-enoyl)piperidin-2-yl)imidazo[1,5-a]pyrazin-1-yl)-N-(pyridazin-3-yl)benzamide], the “EC50 Btk activity values” is given as less than 100 nM.

In the case of `Nc1nccn2c([C@@H]3CCCCN3C(=O)c3ccnc(Cl)n3)nc(-c3ccc(C(=O)Nc4cc(F)ccn4)cc3)c12` [Example 80, (S)-4-(8-amino-3-(1-(2-chloropyrimidine-4-carbonyl)piperidin-2-yl)imidazo[1,5-a]pyrazin-1-yl)-N-(4-fluoropyridin-2-yl)benzamide], the “EC50 Btk activity values” is on record as less than 100 nM. The same measure, in the same setting: as for `COC/C=C/C(=O)N1CCCC[C@H]1c1nc(-c2ccc(C(=O)Nc3cc(F)ccn3)cc2)c2c(N)nccn12` [Example 81, (S,E)-4-(8-amino-3-(1-(4-methoxybut-2-enoyl)piperidin-2-yl)imidazo[1,5-a]pyrazin-1-yl)-N-(4-fluoropyridin-2-yl)benzamide], the figure is less than 100 nM; as for `COC/C=C/C(=O)N1CCC[C@H]1c1nc(-c2ccc(C(=O)Nc3nc4c(s3)CCCC4)cc2)c2c(N)nccn12` [Example 82, (S,E)-4-(8-amino-3-(1-(4-methoxybut-2-enoyl)pyrrolidin-2-yl)imidazo[1,5-a]pyrazin-1-yl)-N-(4,5,6,7-tetrahydrobenzo[d]thiazol-2-yl)benzamide], less than 100 nM.

Take `COc1cc(-c2nc([C@@H]3CCCN3C(=O)c3ccnc(Cl)n3)n3ccnc(N)c23)ccc1C(=O)Nc1ccccn1` [Example 83, (S)-4-(8-amino-3-(1-(2-chloropyrimidine-4-carbonyl)pyrrolidin-2-yl)imidazo[1,5-a]pyrazin-1-yl)-2-methoxy-N-(pyridin-2-yl)benzamide]: the “EC50 Btk activity values” is reported as less than 100 nM. Consider `Nc1nccn2c([C@@H]3CCCN3C(=O)c3ccnc(Cl)n3)nc(-c3ccc(C(=O)Nc4ccccn4)c(F)c3)c12` [Example 84, (S)-4-(8-amino-3-(1-(2-chloropyrimidine-4-carbonyl)pyrrolidin-2-yl)imidazo[1,5-a]pyrazin-1-yl)-2-fluoro-N-(pyridin-2-yl)benzamide], for which the “EC50 Btk activity values” is less than 100 nM. On the same count and under the same terms, as for `CC#CC(=O)N1CCCC[C@H]1c1nc(-c2ccc(C(=O)Nc3nccc(C)n3)cc2)c2c(N)nccn12` [Example 89, (S)-4-(8-amino-3-(1-but-2-ynoylpiperidin-2-yl)imidazo[1,5-a]pyrazin-1-yl)-N-(4-methylpyrimidin-2-yl)benzamide], the figure is less than 100 nM. Consider `COC/C=C/C(=O)NCc1nc(-c2ccc(C(=O)Nc3ccccn3)cc2)c2c(N)nccn12` [Example 95, (E)-4-(8-amino-3-((4-methoxybut-2-enamido)methyl)imidazo[1,5-a]pyrazin-1-yl)-N-(pyridin-2-yl)benzamide], for which the “EC50 Btk activity values” was less than 100 nM. Same read-out and setting: for `CC#CC(=O)N1CCC[C@H]1c1nc(-c2ccc(C(=O)Nc3cc(N4CCCC4)ccn3)cc2)c2c(N)nccn12` [Example 96, (S)-4-(8-amino-3-(1-but-2-ynoylpyrrolidin-2-yl)imidazo[1,5-a]pyrazin-1-yl)-N-(4-(pyrrolidin-1-yl)pyridin-2-yl)benzamide] the value was less than 100 nM; for `COC/C=C/C(=O)N1CCC[C@H]1c1nc(-c2ccc(C(=O)Nc3cc(C#N)ccn3)cc2)c2c(N)nccn12` [Example 98, (S,E)-4-(8-amino-3-(1-(4-methoxybut-2-enoyl)pyrrolidin-2-yl)imidazo[1,5-a]pyrazin-1-yl)-N-(4-cyanopyridin-2-yl)benzamide], less than 100 nM.

Still in this experiment, the particulars now being: 60 min pre-incubation, 5 μM ATP, bin bounds in μM.
On to `COC/C=C/C(=O)N1CCCC[C@H]1c1nc(-c2ccc(C(=O)Nc3cccnn3)cc2)c2c(N)nccn12` [Example 72, (S,E)-4-(8-amino-3-(1-(4-methoxybut-2-enoyl)piperidin-2-yl)imidazo[1,5-a]pyrazin-1-yl)-N-(pyridazin-3-yl)benzamide], for which the “EC50 Btk activity values” is less than 1000 nM. On to `Nc1nccn2c([C@@H]3CCCCN3C(=O)c3ccnc(Cl)n3)nc(-c3ccc(C(=O)Nc4cccnn4)cc3)c12` [Example 74, (S)-4-(8-amino-3-(1-(2-chloropyrimidine-4-carbonyl)piperidin-2-yl)imidazo[1,5-a]pyrazin-1-yl)-N-(pyridazin-3-yl)benzamide], for which the “EC50 Btk activity values” is less than 1000 nM. Same read-out and setting: for `COC/C=C/C(=O)N1CCCC[C@H]1c1nc(-c2ccc(C(=O)Nc3ccccn3)cc2C)c2c(N)nccn12` [Example 85, 4-(8-amino-3-((S)-1-((E)-4-methoxybut-2-enoyl)piperidin-2-yl)imidazo[1,5-a]pyrazin-1-yl)-3-methyl-N-(pyridin-2-yl)benzamide] the value was less than 1000 nM; for `COC/C=C/C(=O)N1CCCC[C@H]1c1nc(-c2ccc(C(=O)Nc3ccncn3)cc2)c2c(N)nccn12` [Example 86, (S,E)-4-(8-amino-3-(1-(4-methoxybut-2-enoyl)piperidin-2-yl)imidazo[1,5-a]pyrazin-1-yl)-N-(pyrimidin-4-yl)benzamide], less than 1000 nM. For `CCCc1ccnc(NC(=O)c2ccc(-c3nc([C@@H]4CCCN4C(=O)/C=C/COC)n4ccnc(N)c34)c(C)c2)c1` [Example 87, 4-(8-amino-3-((S)-1-((E)-4-methoxybut-2-enoyl)pyrrolidin-2-yl)imidazo[1,5-a]pyrazin-1-yl)-3-methyl-N-(4-propylpyridin-2-yl)benzamide], the “EC50 Btk activity values” was less than 1000 nM. On the same count and under the same terms, for `COC/C=C/C(=O)N1CCCC[C@H]1c1nc(-c2ccc(C(=O)Nc3nccc(C)n3)cc2)c2c(N)nccn12` [Example 88, (S,E)-4-(8-amino-3-(1-(4-methoxybut-2-enoyl)piperidin-2-yl)imidazo[1,5-a]pyrazin-1-yl)-N-(4-methylpyrimidin-2-yl)benzamide] the value was less than 1000 nM; for `Nc1nccn2c([C@@H]3CCCCN3C(=O)c3ccnc(Cl)n3)nc(-c3ccc(C(=O)Nc4ncccn4)cc3)c12` [Example 90, (S)-4-(8-amino-3-(1-(2-chloropyrimidine-4-carbonyl)piperidin-2-yl)imidazo[1,5-a]pyrazin-1-yl)-N-(pyrimidin-2-yl)benzamide], less than 1000 nM.

As for `C=C(C(=O)N1CCC[C@H]1c1nc(-c2ccc(C(=O)Nc3ccccn3)cc2)c2c(N)nccn12)C(F)(F)F` [Example 92, (S)-4-(8-amino-3-(1-(2-(trifluoromethyl)acryloyl)pyrrolidin-2-yl)imidazo[1,5-a]pyrazin-1-yl)-N-(pyridin-2-yl)benzamide], the “EC50 Btk activity values” was less than 1000 nM.

Turning to `N#CCN1CCC[C@H]1c1nc(-c2ccc(C(=O)Nc3ccccn3)cc2)c2c(N)nccn12` [Example 94, (S)-4-(8-amino-3-(1-(cyanomethyl)pyrrolidin-2-yl)imidazo[1,5-a]pyrazin-1-yl)-N-(pyridin-2-yl)benzamide], the “EC50 Btk activity values” was less than 1000 nM.
